Where “and” joins values, the source holds several entries; their conditions need not be identical. Equal values may be shown once.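 Interpolation was linear, between the two tested concentrations surrounding the appropriate level; five concentrations were tested over 48 hours in 96-well plates. GI50 = concentration required for 50% inhibition of growth.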 Calls of active or inactive are those of the source. No stated cut-off is given here; in the data, active = GI50 up to about 1.1 µM and inactive = higher.
Columns and labels:
Assay in all cases: inhibition of tumour cell growth, NCI panel, 48 h
786-0 = tested on: 786-0
A498 = tested on: A498
ACHN = tested on: ACHN
CAKI-1 = tested on: CAKI-1
CCRF-CEM = tested on: CCRF-CEM
COLO 205 = tested on: COLO 205
HCC 2998 = tested on: HCC 2998
HCT-116 = tested on: HCT-116
HCT-15 = tested on: HCT-15
HOP-62 = tested on: HOP-62
HT-29 = tested on: HT-29
Hs-578T = tested on: Hs-578T
IGROV-1 = tested on: IGROV-1
K562 = tested on: K562
LOX IMVI = tested on: LOX IMVI
MCF7 = tested on: MCF7
MDA-MB-231 = tested on: MDA-MB-231
MDA-MB-435 = tested on: MDA-MB-435
MDA-N = tested on: MDA-N
Malme-3M = tested on: Malme-3M
NCI-H226 = tested on: NCI-H226
NCI-H23 = tested on: NCI-H23
NCI-H460 = tested on: NCI-H460
NCI-H522 = tested on: NCI-H522
NCI/ADR-RES = tested on: NCI/ADR-RES
OVCAR-3 = tested on: OVCAR-3
OVCAR-4 = tested on: OVCAR-4
OVCAR-8 = tested on: OVCAR-8
RPMI-8226 = tested on: RPMI-8226
RXF 393 = tested on: RXF 393
SF-268 = tested on: SF-268
SF-295 = tested on: SF-295
SK-MEL-28 = tested on: SK-MEL-28
SN12C = tested on: SN12C
SR = tested on: SR
SW-620 = tested on: SW-620
T47D = tested on: T47D
U-251 = tested on: U-251
A549 = tested on: A549
DU-145 = tested on: DU-145
EKVX = tested on: EKVX
HL-60 = tested on: HL-60
HOP-92 = tested on: HOP-92
KM12 = tested on: KM12
M14 = tested on: M14
MOLT-4 = tested on: MOLT-4
OVCAR-5 = tested on: OVCAR-5
PC-3 = tested on: PC-3
SF-539 = tested on: SF-539
SK-MEL-2 = tested on: SK-MEL-2
SK-MEL-5 = tested on: SK-MEL-5
SK-OV-3 = tested on: SK-OV-3
SNB-19 = tested on: SNB-19
SNB-75 = tested on: SNB-75
TK-10 = tested on: TK-10
UACC-257 = tested on: UACC-257
UACC-62 = tested on: UACC-62
UO-31 = tested on: UO-31

COc1ccc(COC(=O)NCC(=O)NC(C)C(=O)NC(Cc2ccccc2)C(=O)OCc2ccccc2)cc1 (stereo not drawn)
GI50 (786-0): 20 µM (inactive) and 29.2 µM (inactive) | GI50 (A498): 38.8 µM (inactive) and 22.5 µM (inactive) | GI50 (ACHN): 21.3 µM (inactive) and 19.8 µM (inactive) | GI50 (CAKI-1): 20 µM (inactive) and 21.1 µM (inactive) | GI50 (CCRF-CEM): 21.5 µM (inactive) and 13.6 µM (inactive) | GI50 (COLO 205): 24.4 µM (inactive) and 24.2 µM (inactive) | GI50 (HCC 2998): 20.9 µM (inactive) and 14.8 µM (inactive) | GI50 (HCT-116): 33.5 µM (inactive) and 42.5 µM (inactive) | GI50 (HCT-15): > 100 µM and 61.2 µM | GI50 (HOP-62): 24.7 µM (inactive) and 22.3 µM (inactive) | GI50 (HT-29): 26.4 µM (inactive) and 18.4 µM (inactive) | GI50 (Hs-578T): 23.9 µM (inactive) and 25.5 µM (inactive) | GI50 (IGROV-1): 45.2 µM (inactive) and 29.8 µM (inactive) | GI50 (K562): 26.5 µM (inactive) and 38.7 µM (inactive) | GI50 (LOX IMVI): 28.1 µM (inactive) and 19.4 µM (inactive) | GI50 (MCF7): 17 µM (inactive) | GI50 (MDA-MB-231): 20 µM (inactive) and 25.6 µM (inactive) | GI50 (MDA-MB-435): 27.6 µM (inactive) and 22.1 µM (inactive) | GI50 (MDA-N): 25.9 µM (inactive) and 27.4 µM (inactive) | GI50 (Malme-3M): 19.2 µM (inactive) and 36.6 µM (inactive) | GI50 (NCI-H226): 27.3 µM (inactive) and 34.9 µM (inactive) | GI50 (NCI-H23): 37.9 µM (inactive) | GI50 (NCI-H460): 10.8 µM (inactive) | GI50 (NCI-H522): 12.2 µM (inactive) and 16.5 µM (inactive) | GI50 (NCI/ADR-RES): > 100 µM (inactive) and 67.1 µM (inactive) | GI50 (OVCAR-3): 22.1 µM (inactive) and 24.4 µM (inactive) | GI50 (OVCAR-4): 34 µM (inactive) and 22.3 µM (inactive) | GI50 (OVCAR-8): > 100 µM (inactive) and 74.5 µM (inactive) | GI50 (RPMI-8226): 29.6 µM (inactive) and 26.7 µM (inactive) | GI50 (RXF 393): 16.1 µM (inactive) | GI50 (SF-268): 24.3 µM (inactive) and 35 µM (inactive) | GI50 (SF-295): 21.1 µM (inactive) and 22.3 µM (inactive) | GI50 (SK-MEL-28): 18.9 µM (inactive) and 19.4 µM (inactive) | GI50 (SN12C): 24.2 µM (inactive) and 31.5 µM (inactive) | GI50 (SR): 28.3 µM (inactive) and 25 µM (inactive) | GI50 (SW-620): 33.3 µM (inactive) and 45.8 µM (inactive) | GI50 (T47D): 19.8 µM (inactive) and 30.1 µM (inactive) | GI50 (U-251): 22.2 µM (inactive) and 21.9 µM (inactive)

CC(=O)N(CN1C(=O)CCC1C(=O)O)c1ccccc1Cl (stereo not drawn)
GI50 (786-0): > 100 µM (inactive) | GI50 (A498): > 100 µM (inactive) | GI50 (A549): > 100 µM (inactive) | GI50 (ACHN): > 100 µM (inactive) | GI50 (CAKI-1): > 100 µM (inactive) | GI50 (CCRF-CEM): > 100 µM (inactive) | GI50 (COLO 205): > 100 µM (inactive) | GI50 (DU-145): > 100 µM (inactive) | GI50 (EKVX): > 100 µM (inactive) | GI50 (HCC 2998): > 100 µM (inactive) | GI50 (HCT-116): > 100 µM (inactive) | GI50 (HCT-15): > 100 µM | GI50 (HL-60): > 100 µM (inactive) | GI50 (HOP-62): > 100 µM (inactive) | GI50 (HOP-92): > 100 µM (inactive) | GI50 (HT-29): > 100 µM (inactive) | GI50 (Hs-578T): > 100 µM (inactive) | GI50 (IGROV-1): > 100 µM (inactive) | GI50 (K562): > 100 µM (inactive) | GI50 (KM12): > 100 µM (inactive) | GI50 (LOX IMVI): > 100 µM (inactive) | GI50 (M14): > 100 µM (inactive) | GI50 (MCF7): > 100 µM (inactive) | GI50 (MDA-MB-231): > 100 µM (inactive) | GI50 (MDA-MB-435): > 100 µM (inactive) | GI50 (MDA-N): > 100 µM (inactive) | GI50 (MOLT-4): > 100 µM (inactive) | GI50 (Malme-3M): > 100 µM (inactive) | GI50 (NCI-H226): > 100 µM (inactive) | GI50 (NCI-H23): > 100 µM (inactive) | GI50 (NCI-H460): > 100 µM (inactive) | GI50 (NCI-H522): > 100 µM (inactive) | GI50 (NCI/ADR-RES): > 100 µM (inactive) | GI50 (OVCAR-3): > 100 µM (inactive) | GI50 (OVCAR-4): > 100 µM (inactive) | GI50 (OVCAR-5): > 100 µM (inactive) | GI50 (OVCAR-8): > 100 µM (inactive) | GI50 (PC-3): > 100 µM (inactive) | GI50 (RPMI-8226): > 100 µM (inactive) | GI50 (RXF 393): > 100 µM (inactive) | GI50 (SF-268): > 100 µM (inactive) | GI50 (SF-295): > 100 µM (inactive) | GI50 (SF-539): > 100 µM (inactive) | GI50 (SK-MEL-28): > 100 µM (inactive) | GI50 (SK-MEL-2): > 100 µM (inactive) | GI50 (SK-MEL-5): > 100 µM (inactive) | GI50 (SK-OV-3): > 100 µM (inactive) | GI50 (SN12C): > 100 µM (inactive) | GI50 (SNB-19): > 100 µM (inactive) | GI50 (SNB-75): > 100 µM (inactive) | GI50 (SW-620): > 100 µM (inactive) | GI50 (T47D): > 100 µM (inactive) | GI50 (TK-10): > 100 µM (inactive) | GI50 (U-251): > 100 µM (inactive) | GI50 (UACC-257): > 100 µM (inactive) | GI50 (UACC-62): > 100 µM (inactive) | GI50 (UO-31): > 100 µM (inactive)

CCOC(=O)/C=C/CC(C)(C)COC(C)=O
GI50 (A549): > 10 µM (inactive) | GI50 (ACHN): 6.75 µM (inactive) | GI50 (CCRF-CEM): > 10 µM (inactive) | GI50 (DU-145): 7.43 µM (inactive) | GI50 (HCC 2998): > 10 µM (inactive) | GI50 (HCT-116): 6.1 µM (inactive) | GI50 (HCT-15): > 10 µM | GI50 (HL-60): > 10 µM (inactive) | GI50 (Hs-578T): 0.406 µM (active) | GI50 (K562): 9.91 µM (inactive) | GI50 (KM12): 0.811 µM (active) | GI50 (LOX IMVI): 6.98 µM (inactive) | GI50 (M14): 6.75 µM (inactive) | GI50 (MCF7): > 10 µM (inactive) | GI50 (MDA-MB-231): > 10 µM (inactive) | GI50 (MDA-MB-435): > 10 µM (inactive) | GI50 (MDA-N): 7.48 µM (inactive) | GI50 (MOLT-4): > 10 µM (inactive) | GI50 (NCI-H226): 2.45 µM (inactive) | GI50 (NCI-H23): > 10 µM (inactive) | GI50 (NCI-H460): > 10 µM (inactive) | GI50 (NCI-H522): > 10 µM (inactive) | GI50 (NCI/ADR-RES): > 10 µM (inactive) | GI50 (OVCAR-3): > 10 µM (inactive) | GI50 (OVCAR-4): > 10 µM (inactive) | GI50 (OVCAR-5): 9.08 µM (inactive) | GI50 (PC-3): > 10 µM (inactive) | GI50 (RPMI-8226): > 10 µM (inactive) | GI50 (RXF 393): 5.32 µM (inactive) | GI50 (SF-268): > 10 µM (inactive) | GI50 (SF-295): > 10 µM (inactive) | GI50 (SK-MEL-28): > 10 µM (inactive) | GI50 (SK-MEL-2): > 10 µM (inactive) | GI50 (SK-OV-3): > 10 µM (inactive) | GI50 (SN12C): > 10 µM (inactive) | GI50 (SNB-75): 5.11 µM (inactive) | GI50 (SR): > 10 µM (inactive) | GI50 (SW-620): > 10 µM (inactive) | GI50 (T47D): > 10 µM (inactive) | GI50 (TK-10): > 10 µM (inactive) | GI50 (UACC-257): > 10 µM (inactive) | GI50 (UACC-62): > 10 µM (inactive) | GI50 (UO-31): > 10 µM (inactive)

Reference: ChEMBL document CHEMBL1201862, “PubChem BioAssay data set” (2004)
